According to patent US12312473B2, “Composition, film, near-infrared cut filter, pattern forming method, laminate, solid-state imaging element, infrared sensor, image display device, camera module, and compound” (FUJIFILM Corporation, priority 2019, dated 2025):
≈ marks a conversion by molar mass, not a printed value.

experiment: Solubility of coloring agent in PGMEA; format: physicochemical; settings: propylene glycol methyl ether acetate (PGMEA), organic solvent or mixture, thermodynamic from solid, approx. 100 mg in 1 L propylene glycol methyl ether acetate at 25° C., stirred 30 minutes
Protocol: In the present disclosure, the solubility of the coloring agent having a structure represented by Formula (1) (that is, the specific coloring agent) is measured and obtained by the following method.
Under atmospheric pressure, approximately 100 mg (precisely weighed value is X mg) of the coloring agent having a structure represented by Formula (1) is added to 1 L of propylene glycol methyl ether acetate at 25° C., and the mixture is stirred for 30 minutes, allowed to stand for 5 minutes, and filtered. Thereafter, the filtrate is dried under reduced pressure at 80° C. for 2 hours and precisely weighed (precisely weighed value is Y mg), and the solubility of the specific coloring agent dissolved in propylene glycol methyl ether acetate is calculated from the following expression. PGMEA solubility (mg/L) of specific coloring agent=X—Y
Under atmospheric pressure, approximately 100 mg of the dispersion liquid of the coloring agents shown in Tables 1 to 4 (value of the coloring agents shown Tables 1 to 4 precisely weighed is defined as X mg) was added to 1 L of propylene glycol methyl ether acetate at 25° C., and the mixture was stirred for 30 minutes. Next, the mixture was allowed to stand for 5 minutes and filtered, and the filtrate was dried under reduced pressure at 80° C. for 2 hours and weighed precisely (value of the filtrate precisely weighed is defined as Y mg). Solubility of the coloring agents shown in Tables 1 to 4 dissolved in propylene glycol methyl ether acetate was calculated from the following expression.

Row | Structure (SMILES) | solubility at 30 min [µg/mL]
1 | O=C1C(=O)/C(=C2/C=CC(=[N+]3CCC(C(=O)Oc4ccc(OC(=O)C5CC[N+](=C6C=C/C(=C7/C(=O)C(=O)C(c8ccc(N9CCC(C(=O)O)CC9)s8)=C7[O-])S6)CC5)cc4)CC3)S2)C([O-])=C1c1ccc(N2CCC(C(=O)O)CC2)s1 (centres unmarked) [A-cr-1] | 50 to 100 (≈ 44.2 to 88.4 µM)
2 | O=C1C(c2ccc3cccc4c3c2NC2(N4)c3ccccc3-c3ccc(OC(=O)c4ccc(C(=O)Oc5ccc6c(c5)C5(N=c7/c(=C8/C(=O)C(c9ccc%10cccc%11c%10c9NC9(N%11)c%10ccccc%10-c%10ccccc%109)=C8O)ccc8cccc(c78)N5)c5ccccc5-6)cc4)cc32)=C(O)/C1=c1/ccc2cccc3c2c1=NC1(N3)c2ccccc2-c2ccccc21 (centres unmarked) [A-sq-1] | < 10
3 | CC(=O)Nc1cc2c(cc1C1=C([O-])/C(=c3/cc4c(cc3NC(=O)c3ccc(C(=O)Nc5cc6c(cc5C5=C([O-])/C(=c7/cc8c(cc7NC(C)=O)=[N+](C)C(C)C8(C)C)C5=O)C(C)(C)C(C)N6C)cc3)=[N+](C)C(C)C4(C)C)C1=O)C(C)(C)C(C)N2C (centres unmarked) [A-sq-3] | < 10
4 | O=C1C(c2ccc3cccc4c3c2NB(c2ccc(-c3ccc(B5Nc6cccc7ccc(C8=C(O)/C(=c9/ccc%10cccc%11c%10c9=NB(c9ccccc9)N%11)C8=O)c(c67)N5)cc3)cc2)N4)=C(O)/C1=c1/ccc2cccc3c2c1=NB(c1ccccc1)N3 [A-sq-5] | < 10
5 | O=C1C(c2ccc3cccc4c3c2NC2(N4)c3ccccc3-c3ccccc32)=C(O)C1C1C=Cc2cccc3c2C1=NC1(N3)c2ccccc2-c2ccccc21 (centres unmarked) [compound 3, reference compound] | < 10
